What was measured:
[1] = Renal excretion and extracellular distribution of beta-oxidation degradation products; assay type: in vivo; conditions: products of beta-oxidation of radio-iodine-labelled phenyl fatty acids
Text: We have now discovered radio-iodine-labelled omega-phenyl fatty acids, particularly p-I123 -omega-phenyl pentadecanoic acid and its use, to image body organs such as the heart and liver. Through the use of these novel agents, the disadvantages associated with the use of omega-iodine fatty acids, e.g., injecting radioactive iodide as an internal standard and making the necessary corrections, can be completely avoided.
On degradation via beta-oxidation of the iodinated phenyl fatty acid of the invention, the radioactive residue produced is not iodide, but rather iodinated benzoic or iodinated phenylacetic acid. […] Tests in mice have proven that the residual activity in the blood is 2% of the injected dose per gram of blood.

[2] = stated as known; cited from earlier work

iodophenylacetic acid
distribution throughout the extracellular fluid [1]: does not occur | excretion by the kidneys [1]: rapidly and quantitatively excreted by the kidneys | excretion from the body via the kidneys [2]: rapidly excreted from the body via the kidneys

Source: patent US4473544A, “Radio-iodine-labelled omega phenyl fatty acids” (priority 1979, dated 1984)
